Assays:
WPMY-1 cells = assay: Uptake of PKH26-labeled large oncosomes (LO) by recipient cells, FACS / fluorescent imaging; assay type: cell-based, human; details: WPMY-1 cells treated with PKH26-labeled LO for 1 h at 37° C. in presence of the compound
Protocol: As shown in FIG. 23 LO internalization differs between cells. LO isolation was performed using a filtration approach where the larger vesicles are retained by the filter and the smaller ones flow through. To test LO uptake, LO were labeled with a lipophilic dye, PKH26 and then used to treat target cells for 1 h at 37° C. LO uptake levels have been measured as the acquisition of fluorescence by target cells either by FACS or confocal imaging.
LO isolation was preformed using a filtration approach where the larger vesicles are retained by the filter and the smaller ones flow through. To test LO uptake LO were labeled with a lipophilic dye, PKH26 and then used to treat target cells for 1 h at 37° C. or 4° C. in presence or absence of the indicated compounds. LO uptake levels were measured as the acquisition of fluorescence by target cells either by FACS and fluorescent imaging. Dynamin2 silencing has been performed by transient transfection of WPMY-1 cells with an oligos against Dynamin2.

c-Myc = assay: Luciferase reporter assay for c-Myc promoter activation in NAF; assay type: cell-based; details: NAF exposed to LO (20 μg/ml) in presence of Dyn (20 μM)
Protocol: LO and Exo isolation was performed by differential high-speed centrifugation (10,000×g and 100,000×g) followed discontinuous density gradient centrifugation. Conditioned media from LNCaPMyrAkt1 was used as source for LO and Exo. Nuclear extract from WPMY-1 cells treated with LO for the indicated time was used to perform the transcription factor activation profiling array from Signosis. Luciferase reporter assay for c-Myc promoter activation has been performed in NAF transfected with c-Myc promoter or vector plasmid treated with either LO or Exo 20 μg/ml for 6 h. RT-qPCR for c-Myc target cells in NAF treated with either LO or Exo 20 μg/ml for 6 h or 24 h.
LO and Exo isolation was performed by differential high-speed centrifugation (10,000×g and 100,000×g) followed by discontinuous density gradient centrifugation. Conditioned media from LNCaPMyrAkt1 was used as source for LO and Exo. […] After for 6 h-8 h tube formation rate is recorded by imaging, and quantified by counting the branching points in randomly chosen fields from each condition.

HUVEC = assay: Tube formation assay in endothelial cells; assay type: cell-based; details: HUVECs treated with LO (20 μg/ml) in presence of Dyn
Protocol: (§1) LO and Exo isolation was performed by differential high-speed centrifugation (10,000×g and 100,000×g) followed by discontinuous density gradient centrifugation. Conditioned media from LNCaPMyrAkt1 was used as source for LO and Exo. Tube formation assay in endothelial cells, HUVEC treated with LO or Exo 20 μg/ml directly or with conditioned media from NAF previously exposed to either LO or Exo. After 6 h-8 h tube formation rate is recorded by imaging, and quantified by counting the branching points in randomly chosen fields from each condition.
as §1, with “Exo. Luciferase reporter assay for c-Myc promoter activation was performed in NAF transfected with c-Myc promoter or vector plasmid treated with either LO or Exo 20 μg/ml for 6 h in presence or absence of Dynasore 20 nM.” for “Exo.”, “directly in presence” for “directly”, “absence of Dynasore 20 nM.” for “with conditioned media from NAF previously exposed to either LO or Exo.”, “After for” for “After”

c-Myc activation induced by LO (luciferase reporter) (c-Myc) | Structure (SMILES) | LO uptake (internalization, mean fluorescent intensity) (WPMY-1 cells) | LO uptake (internalization, mean fluorescent intensity) (WPMY-1 cells; listed as Dyn) | tube formation (HUVEC)
– | C=C1[C@@H](C)[C@H]2[C@H](Cc3ccccc3)NC(=O)[C@]23[C@H](OC(C)=O)/C=C/[C@@](C)(O)C(=O)[C@@H](C)C/C=C/[C@H]3[C@@H]1O [cytochalasin D] | partially reduced | – | –
reverted | O=C(N/N=C/c1ccc(O)c(O)c1)c1cc2ccccc2cc1O [dynasore] | significantly reduced | inhibited | significantly inhibited

Source: patent US10254285B2, “Methods for detecting and treating cancer metastasis” (Cedars-Sinai Medical Center, priority 2013, dated 2019)
